The results in this text go back to patent US11292773B2, “Small molecule inhibitors of BCL-2-associated death promoter (BAD) phosphorylation” (NATIONAL UNIVERSITY OF SINGAPORE, priority 2017, dated 2022).

“Also recorded” adds a separate entry of the source.

The subject of assay [1] is carcinoma cell lines (mammary, endometrial, ovarian, liver, colon, prostate, pancreatic). The assay can be described thus: ApoTox-Glo Triplex assay (viability, caspase 3/7, cytotoxicity) in carcinoma cell lines. It counts as cell-based, human. The settings on record: all tested cancer cell lines. The text has this:
NPB was subsequently evaluated against panel of normal immortalized mammary epithelial cells (MCF10A and MCF12A), normal hepatocytes (LO2), mammary carcinoma (BT549, MDA-MB-231, MCF7, T47D, BT474), endometrial cancer (Ishikawa, Ecc1, RL95-2, AN3), ovarian cancer (SK-OV-3, OVCAR-2, Caov-3, HEY C2, Ovca433), liver cancer (Hep3B, H2P, H2M), colon cancer (HCT116, DLD-1, Caco-2), prostate cancer (PC3, LNCaP, DU145) and pancreatic cancer (AsPC-1, BxPC-3) cells. […] Using a Laplacian-modified Naïve Bayes classifier, NPB is subjected to in silico analysis which anticipates the human target of NPB as BAD protein.
Effect of NPB (5 μM) on carcinoma cell viability including, mammary, endometrial, ovarian, liver, colon, prostate, and pancreatic carcinoma cell lines. (A) Cell viability (B) caspase 3/7 activities and (C) cytotoxicity were evaluated using ApoTox-GIo™ Triplex Assay Kit as described in methodology. Statistical significance was assessed by an unpaired two-tailed Student's t-test using GraphPad Prism5. The column represents mean of triplicate determinations; bars, ±SD. **P<0.001, *P<0.05. Note: RFU, relative fluorescence unit; RLU, relative luminescence unit, #; non-transformed, immortalized epithelial cells; MB-231, MDA-MB-231. […]

For assay [2], the target named is T1, hBAD phosphorylation (Ser75, Ser99) (Homo sapiens, UniProt Q92934).
T1 construct: endogenous in cells; host or cells: MCF7 (A6); 25 carcinoma cell lines of seven cancer types (A7)
T1 sequence (Q92934 1-168): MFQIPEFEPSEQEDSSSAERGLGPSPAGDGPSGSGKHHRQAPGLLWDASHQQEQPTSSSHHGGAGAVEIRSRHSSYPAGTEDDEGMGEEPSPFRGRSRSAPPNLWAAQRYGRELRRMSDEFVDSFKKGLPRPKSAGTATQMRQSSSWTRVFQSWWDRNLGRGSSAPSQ
The assay can be described thus: Western blot of hBAD Ser75 and Ser99 phosphorylation in 25 carcinoma cell lines. It counts as cell-based. The settings on record: all tested carcinoma cell lines, NPB 5 μM. As for the experimental part: (§1) (A) WB analysis was used to assess the levels of phosphorylated human BAD (at Ser75 and Ser99) and BAD protein in the range of carcinoma cell lines, including mammary, ovarian, pancreatic, endometrial, hepatocellular, colon and prostate cancer after treatment with NPB (5 μM). Total BAD was used as an input control for cell lysate. (B) WB analysis was used to assess the levels of pBAD (Ser99) and pAKT (Ser473), AKT and BAD in MCF7, Caov-3, Ishikawa, and AsPC-1 cells. 5 μM each of AKT inhibitor (IV) and NPB was used to treat cells. Depletion of AKT expression was achieved using transient-transfection of short hairpin (sh)-RNA (1&2) directed to AKT transcript as described in methodology. β-ACTIN was used as an input control for cell lysate. For WB analysis, soluble whole cell extracts were run on an SDS-PAGE and immunoblotted as described in materials methodology. The sizes of detected protein bands in kDa are shown on the left side. Note: #; non-transformed immortalized-cell line.
We next analyzed the effect of NPB on phosphorylation of hBAD at both Ser75 and Ser99 by western blot analysis in 25 carcinoma cell lines derived seven different types of cancer.
(In general: In western blotting, separated proteins are transferred to a membrane and probed.)

The subject of the next assay is AKT. The assay can be described thus: Western blot of pAKT (Ser473), AKT, pBAD (Ser99) and BAD in carcinoma cell lines. More on the design: dose or concentration left out as unconfirmed. The class given is cell-based, human. As to conditions: MCF7, Caov-3, Ishikawa, AsPC-1. How it is done:
as §1, with “5 μM each of AKT inhibitor (IV) and NPB was used to treat cells.” left out
The upstream AKT Ser/Thr kinase regulates the phosphorylation of hBAD at Ser99 [13]. We therefore determined whether NPB inhibits the phosphorylation of hBAD (Ser99) via modulation of the activity of AKT (as indicated by phosphorylation of Ser473) using western blot analysis. We observed no change in the levels of pAKT or levels of total AKT protein after exposure of four different carcinoma cells lines (MCF7, Caov-3, Ishikawa, and AsPC-1) to 10 μM NPB. […]

For `O=C(NC1CCCC1)c1cccc(C(c2ccccc2O)N2CCN(c3cccc(Cl)c3Cl)CC2)c1` (centres unmarked) [NPB, N-cyclopentyl-3-((4-(2,3-dichlorophenyl)piperazin-1-yl)(2-hydroxyphenyl)methyl) benzamide], in assay [1], the “apoptosis in cancer cell lines” value was “significantly enhanced; also recorded: induce apoptotic cell death”. In assay [2], the “phosphorylation of BAD at the Ser99 site” value is listed as “largely inhibits” and the “phosphorylation of hBAD at the Ser75 site” value is “no effect”. In the assay with AKT, the “BAD phosphorylation at the Ser99 site” value is recorded as “inhibition” and the “levels of pAKT or total AKT protein” value is recorded as “no change”.
